45 molecules from patent US6781000B1, “Alpha-ketoamide inhibitors of 20S proteasome” (CV Theurapeutics, Inc., priority 1998, dated 2004) can be followed below.

Each structure is given as a SMILES string.

In general, IC50 refers to the concentration that gives 50% inhibition. A lower IC50 goes with greater potency.

The test concerns the target T1, chymotrypsin-like activity of 20S proteasome (Bos taurus, UniProt Q2TBX6+Q32KL2).
T1 construct: was purified to homogeneity from bovine brain according to published methods; from tissue; host or cells: bovine brain
The test can be described thus: 20S proteasome chymotryptic activity inhibition assay (Suc-Leu-Leu-Val-Tyr-AMC cleavage). Particulars: 2 μg 20S proteasome from bovine brain, 50 μM fluorogenic substrate, 15 minutes at 37° C., pH7.5. In kind it is biochemical. As to the method:
Compounds of this invention prepared according to the method of Example 1 were tested as follows. The 20S catalytic subunit of the proteasome (also known as the multicatalytic proteinase complex) was purified to homogeneity from bovine brain according to published methods (Wilk S. and Orlowski,M 1983, 40 842 J.Neurochem). The chymotryptic activity of the complex is measured by the increase in fluorescence following cleavage of the substrate peptide succinyl-leucine-leucine-valine-tyrosine-7-amino-4methyl coumarin. The standard in vitro assay consists of 2 μg 20S proteasome, 0.1-100 μg/ml proteasome inhibitor in 200 μl 50 mM HEPES, containing 0.1% sodium dodecyl sulphate, pH7.5. The proteolytic reaction is initiated by the addition of 50 μM flourogenic peptide substrate and allowed to progress for 15 minutes at 37° C. The reaction is terminated by the addition of 100 μL of 100 mM acetate buffer, pH4.0. The rate of proteolysis is directly proportional to the amount of liberated aminomethylcoumarin which is measured by fluorescent spectroscopy (EX 370 nm, EM 430 nm).
Regarding `CC(C)CC(NC(=O)CNC(=O)C(=O)Cc1c[nH]c2ccccc12)C(=O)NC(Cc1ccccc1)C(=O)O` (stereo not drawn) [Compound 104], the “IC50 for the inhibition of the chymotrypsin-like activity of 20S proteasome” value (shortened to “IC50 for the inhibition”) is over 10 µg/mL.

As to `CC(C)CC(NC(=O)CCNC(=O)C(=O)Cc1c[nH]c2ccccc12)C(=O)NC(Cc1ccccc1)C(=O)O` (stereo not drawn) [Compound 105], the “IC50 for the inhibition” value is over 10 µg/mL.

With `CCCCC(NC(=O)C(=O)Cc1c[nH]c2ccccc12)C(=O)NC(CC(C)C)C(=O)NC(Cc1ccccc1)C(=O)O` (stereo not drawn) [Compound 106], the “IC50 for the inhibition” value was over 10 µg/mL.

On to `CC(C)CC(NC(=O)C(Cc1ccccc1)NC(=O)C(=O)Cc1c[nH]c2ccccc12)C(=O)NC(Cc1ccccc1)C(=O)O` (stereo not drawn) [Compound 107], for which the “IC50 for the inhibition” value is over 10 µg/mL.

As to `CC(C)CC(NC(=O)C(NC(=O)C(=O)Cc1c[nH]c2ccccc12)C(C)O)C(=O)NC(Cc1ccccc1)C(=O)O` (stereo not drawn) [Compound 108], the “IC50 for the inhibition” value is over 10 µg/mL.

Consider `CC(C)CC(NC(=O)C(C)NC(=O)C(=O)Cc1c[nH]c2ccccc12)C(=O)NC(Cc1ccccc1)C(=O)O` (stereo not drawn) [Compound 109], for which the “IC50 for the inhibition” value is over 10 µg/mL.

For the molecule `CC(C)CC(NC(=O)C(CC(=O)O)NC(=O)C(=O)Cc1c[nH]c2ccccc12)C(=O)NC(Cc1ccccc1)C(=O)O` (stereo not drawn) [Compound 110], the “IC50 for the inhibition” value is over 10 µg/mL.

For the molecule `CC(C)CC(NC(=O)C(NC(=O)C(=O)Cc1c[nH]c2ccccc12)C(C)C)C(=O)NC(Cc1ccccc1)C(=O)O` (stereo not drawn) [Compound 111], the “IC50 for the inhibition” value is over 10 µg/mL.

For the molecule `CC(C)CC(NC(=O)C(Cc1ccc(O)cc1)NC(=O)C(=O)Cc1c[nH]c2ccccc12)C(=O)NC(Cc1ccccc1)C(=O)O` (stereo not drawn) [Compound 113], the “IC50 for the inhibition” value is over 10 µg/mL.

As to `CCCCC(NC(=O)C(CC(C)C)NC(=O)CNC(=O)C(=O)Cc1c[nH]c2ccccc12)C(=O)O` (stereo not drawn) [Compound 119], the “IC50 for the inhibition” value is over 10 µg/mL.

In the case of `CCCCC(NC(=O)C(CC(C)C)NC(=O)CCNC(=O)C(=O)Cc1c[nH]c2ccccc12)C(=O)O` (stereo not drawn) [Compound 120], the “IC50 for the inhibition” value is over 10 µg/mL.

For the molecule `CCCCC(NC(=O)C(CC(C)C)NC(=O)C(CCCC)NC(=O)C(=O)Cc1c[nH]c2ccccc12)C(=O)O` (stereo not drawn) [Compound 121], the “IC50 for the inhibition” value was over 10 µg/mL.

On to `CCCCC(NC(=O)C(CC(C)C)NC(=O)C(Cc1ccccc1)NC(=O)C(=O)Cc1c[nH]c2ccccc12)C(=O)O` (stereo not drawn) [Compound 122], for which the “IC50 for the inhibition” value was over 10 µg/mL.

Turning to `CCCCC(NC(=O)C(CC(C)C)NC(=O)C(NC(=O)C(=O)Cc1c[nH]c2ccccc12)C(C)O)C(=O)O` (stereo not drawn) [Compound 123], the “IC50 for the inhibition” value is over 10 µg/mL.

Consider `CCCCC(NC(=O)C(CC(C)C)NC(=O)C(C)NC(=O)C(=O)Cc1c[nH]c2ccccc12)C(=O)O` (stereo not drawn) [Compound 124], for which the “IC50 for the inhibition” value is over 10 µg/mL.

As to `CCCC[C@H](NC(=O)[C@@H](CC(C)C)NC(=O)[C@H](CC(=O)O)NC(=O)C(=O)Cc1c[nH]c2ccccc12)C(=O)O` [Compound 125], the half-maximal inhibitory concentration (IC50) is over 18.4 µM.

For the molecule `CCCCC(NC(=O)C(CC(C)C)NC(=O)C(NC(=O)C(=O)Cc1c[nH]c2ccccc12)C(C)C)C(=O)O` (stereo not drawn) [Compound 126], the “IC50 for the inhibition” value was over 10 µg/mL.

Turning to `CCCCC(NC(=O)C(CC(C)C)NC(=O)C(CCC)NC(=O)C(=O)Cc1c[nH]c2ccccc12)C(=O)O` (stereo not drawn) [Compound 127], the IC50 is over 18.9 µM.

Take `CCCCC(NC(=O)C(CC(C)C)NC(=O)C(Cc1ccc(O)cc1)NC(=O)C(=O)Cc1c[nH]c2ccccc12)C(=O)O` (stereo not drawn) [Compound 128]: the “IC50 for the inhibition” value was over 10 µg/mL.

For the molecule `CC(C)CC(NC(=O)CNC(=O)C(=O)Cc1c[nH]c2ccccc12)C(=O)NC(CC(=O)O)C(=O)O` (stereo not drawn) [Compound 134], the “IC50 for the inhibition” value was over 10 µg/mL.

Turning to `CC(C)CC(NC(=O)CCNC(=O)C(=O)Cc1c[nH]c2ccccc12)C(=O)NC(CC(=O)O)C(=O)O` (stereo not drawn) [Compound 135], the “IC50 for the inhibition” value was over 10 µg/mL.

As to `CCCCC(NC(=O)C(=O)Cc1c[nH]c2ccccc12)C(=O)NC(CC(C)C)C(=O)NC(CC(=O)O)C(=O)O` (stereo not drawn) [Compound 136], the “IC50 for the inhibition” value was over 10 µg/mL.

With `CC(C)CC(NC(=O)C(Cc1ccccc1)NC(=O)C(=O)Cc1c[nH]c2ccccc12)C(=O)NC(CC(=O)O)C(=O)O` (stereo not drawn) [Compound 137], the “IC50 for the inhibition” value was over 10 µg/mL.

Turning to `CC(C)CC(NC(=O)C(NC(=O)C(=O)Cc1c[nH]c2ccccc12)C(C)O)C(=O)NC(CC(=O)O)C(=O)O` (stereo not drawn) [Compound 138], the “IC50 for the inhibition” value is over 10 µg/mL.

On to `CC(C)CC(NC(=O)C(C)NC(=O)C(=O)Cc1c[nH]c2ccccc12)C(=O)NC(CC(=O)O)C(=O)O` (stereo not drawn) [Compound 139], for which the “IC50 for the inhibition” value was over 10 µg/mL.

`CCC(NC(=O)C(=O)Cc1c[nH]c2ccccc12)C(=O)NC(CC(C)C)C(=O)NC(CC(=O)O)C(=O)O` (stereo not drawn) [Compound 140]: the “IC50 for the inhibition” value was over 10 µg/mL.

On to `CC(C)CC(NC(=O)C(NC(=O)C(=O)Cc1c[nH]c2ccccc12)C(C)C)C(=O)NC(CC(=O)O)C(=O)O` (stereo not drawn) [Compound 141], for which the “IC50 for the inhibition” value is over 10 µg/mL.

Consider `CCCC(NC(=O)C(=O)Cc1c[nH]c2ccccc12)C(=O)NC(CC(C)C)C(=O)NC(CC(=O)O)C(=O)O` (stereo not drawn) [Compound 142], for which the “IC50 for the inhibition” value is over 10 µg/mL.

For the molecule `CC(C)CC(NC(=O)C(Cc1ccc(O)cc1)NC(=O)C(=O)Cc1c[nH]c2ccccc12)C(=O)NC(CC(=O)O)C(=O)O` (stereo not drawn) [Compound 143], the “IC50 for the inhibition” value is over 10 µg/mL.

Turning to `CC(C)CC(NC(=O)CCNC(=O)C(=O)Cc1c[nH]c2ccccc12)C(=O)NC(CCC(=O)O)C(=O)O` (stereo not drawn) [Compound 150], the “IC50 for the inhibition” value is over 10 µg/mL.

On to `CCCCC(NC(=O)C(=O)Cc1c[nH]c2ccccc12)C(=O)NC(CC(C)C)C(=O)NC(CCC(=O)O)C(=O)O` (stereo not drawn) [Compound 151], for which the “IC50 for the inhibition” value is over 10 µg/mL.

For `CC(C)CC(NC(=O)C(Cc1ccccc1)NC(=O)C(=O)Cc1c[nH]c2ccccc12)C(=O)NC(CCC(=O)O)C(=O)O` (stereo not drawn) [Compound 152], the “IC50 for the inhibition” value is over 10 µg/mL.

Consider `CC(C)CC(NC(=O)C(NC(=O)C(=O)Cc1c[nH]c2ccccc12)C(C)O)C(=O)NC(CCC(=O)O)C(=O)O` (stereo not drawn) [Compound 153], for which the “IC50 for the inhibition” value is over 10 µg/mL.

As for `CC(C)CC(NC(=O)C(C)NC(=O)C(=O)Cc1c[nH]c2ccccc12)C(=O)NC(CCC(=O)O)C(=O)O` (stereo not drawn) [Compound 154], the “IC50 for the inhibition” value is over 10 µg/mL.

`CC(C)CC(NC(=O)C(CC(=O)O)NC(=O)C(=O)Cc1c[nH]c2ccccc12)C(=O)NC(CCC(=O)O)C(=O)O` (stereo not drawn) [Compound 155]: the “IC50 for the inhibition” value is over 10 µg/mL.

Consider `CC(C)CC(NC(=O)C(NC(=O)C(=O)Cc1c[nH]c2ccccc12)C(C)C)C(=O)NC(CCC(=O)O)C(=O)O` (stereo not drawn) [Compound 156], for which the “IC50 for the inhibition” value is over 10 µg/mL.

For `CCCC(NC(=O)C(=O)Cc1c[nH]c2ccccc12)C(=O)NC(CC(C)C)C(=O)NC(CCC(=O)O)C(=O)O` (stereo not drawn) [Compound 157], the “IC50 for the inhibition” value is over 10 µg/mL.

The molecule `CC(C)CC(NC(=O)C(Cc1ccc(O)cc1)NC(=O)C(=O)Cc1c[nH]c2ccccc12)C(=O)NC(CCC(=O)O)C(=O)O` (stereo not drawn) [Compound 158] had an IC50 of over 16.4 µM.

Regarding `CCC(C)C(NC(=O)C(=O)Cc1c[nH]c2ccccc12)C(=O)NC(CC(C)C)C(=O)NC(CCC(=O)O)C(=O)O` (stereo not drawn) [Compound 159], the “IC50 for the inhibition” value was over 10 µg/mL.

On to `CC(C)CC(NC(=O)C(CC1CCCCC1)NC(=O)C(=O)Cc1c[nH]c2ccccc12)C(=O)NC(CCC(=O)O)C(=O)O` (stereo not drawn) [Compound 160], for which the “IC50 for the inhibition” value is over 10 µg/mL.

As to `CC(C)CC(NC(=O)C(Cc1cccnc1)NC(=O)C(=O)Cc1c[nH]c2ccccc12)C(=O)NC(CCC(=O)O)C(=O)O` (stereo not drawn) [Compound 161], the “IC50 for the inhibition” value is over 10 µg/mL.

`CC(C)CC(NC(=O)C(Cc1ccc2ccccc2c1)NC(=O)C(=O)Cc1c[nH]c2ccccc12)C(=O)NC(CCC(=O)O)C(=O)O` (stereo not drawn) [Compound 162]: the “IC50 for the inhibition” value is over 10 µg/mL.

In the case of `CC(C)CC(NC(=O)C(Cc1ccc(-c2ccccc2)cc1)NC(=O)C(=O)Cc1c[nH]c2ccccc12)C(=O)NC(CCC(=O)O)C(=O)O` (stereo not drawn) [Compound 163], the “IC50 for the inhibition” value is over 10 µg/mL.

Regarding `CC(C)CC(NC(=O)C(Cc1ccc2ccccc2c1)NC(=O)C(=O)Cc1c[nH]c2ccccc12)C(=O)NC(C(=O)O)C(C)C` (stereo not drawn) [Compound 164], the “IC50 for the inhibition” value is over 10 µg/mL.

As to `CC(C)CC(NC(=O)C(Cc1ccc(-c2ccccc2)cc1)NC(=O)C(=O)Cc1c[nH]c2ccccc12)C(=O)NC(C(=O)O)C(C)C` (stereo not drawn) [Compound 165], the “IC50 for the inhibition” value was over 10 µg/mL.
